Test results taken from patent publication US20250101061A1, “UPREGULATION OF FERRITIN HEAVY CHAIN 1 EXPRESSION” (HBC Immunology Inc., priority 2022, published 2025).
“And” between values parts separate entries of the source, which are not always exact repeats. Identical values can stand only once. Peptide text beside a SMILES is read from it.

What was measured:
Assay type in all cases: cell-based
H-Ferritin = H-Ferritin protein levels in mouse bone marrow-derived macrophages (ELISA); conditions: murine macrophages; for H-Ferritin Protein Levels, Fe-Normal / H-Ferritin Protein Levels, DFO (−Fe) / H-Ferritin Protein Levels, Fe-NTA (+Fe): SPH 160 μM or oligopeptide 10 μM; for H-Ferritin Protein Levels, Fe-Normal: normal iron, average of triplicate; for H-Ferritin Protein Levels, DFO (−Fe): with DFO 100 μM 16 h; for H-Ferritin Protein Levels, Fe-NTA (+Fe): with Fe-NTA 8 h; for intracellular H-Ferritin protein levels: normal and iron-depleted conditions
Procedure: (§1) Cell Cultures. MBMMs (C57BL/6 genetic background) were obtained from CellBiologics.net and prepared under the conditions recommended by the supplier. Isolated MBMMs were seeded onto 10 cm diameter Petri dishes and grown in RPMI-GlutaMAX™ medium (Invitrogen) supplemented with 10% heat-inactivated FCS (Gibco), 10% L-cell-conditioned medium (source of colony-stimulating factor 1), 2 mM L-glutamine, 50 U/mL penicillin, and […] streptomycin. At 4 days after seeding, the adherent MBMMs were rinsed twice with Hanks balance salt solution (HBSS), and the medium was renewed for 7 days, at which point the MBMMs had completely differentiated into macrophages that were ready for downstream experimental applications.
(§2) Cell Treatments. SPH (average molecular weight of about 1100 Daltons) and oligopeptides were dissolved in sterile water to obtain […] stock solutions. The SPH and oligopeptides were further diluted in cell culture media to reach final concentrations of 160 μM SPH and 10 μM oligopeptide per Petri dish.
(§3) Murine macrophages were incubated with SPH or an oligopeptide in the presence or absence of an iron-nitrilotriacetate solution (Fe-NTA; FeCl3 (100 μM)-NTA (400 μM)) for 8 h at 37° C. to increase cellular iron concentration. Murine macrophages were also incubated with SPH or an oligopeptide in the presence or absence of desferrioxamine mesylate (DFO; 100 μM) for 16 h at 37° C. to decrease cellular iron concentration. Commercial collagen peptide (Vital Protein) at a 10 μM concentration and sterile water were used as negative controls.
Quantification of H-Ferritin. Macrophages were washed with cold saline and lysed with 400 μl of a solution containing 50 mM HEPES (Gibco), 1% IGEPAL C-630 (Sigma), and 1% proteases inhibitor cocktail P840 (Sigma). H-Ferritin concentrations in the lysates were determined by ELISA using polyclonal antibodies raised against mouse recombinant H-ferritin subunits and calibrated with the corresponding recombinant homopolymers. The specificity and the absence of cross-reactivity of the antibodies are documented. The results were expressed as (ng ferritin) per (mg total protein) in the cell lysate and shown as an average of triplicate readings in Table 8-1. Total protein content was measured using the BCA protein assay kit (Pierce).

FTH1 [1] = test: FTH1 mRNA levels in mouse bone marrow-derived macrophages (qPCR); conditions: murine macrophages; for FTH1 Levels, Fe-Normal / FTH1 Levels, DFO (−Fe) / FTH1 Levels, Fe-NTA (+Fe): SPH 160 μM or oligopeptide 10 μM; for FTH1 Levels, Fe-Normal: normal iron, normalized to Hprt1, relative to control samples; for FTH1 Levels, DFO (−Fe): with DFO 100 μM 16 h; for FTH1 Levels, DFO (−Fe) / FTH1 Levels, Fe-NTA (+Fe): relative to control samples; for FTH1 Levels, Fe-NTA (+Fe): with Fe-NTA 8 h; for FTH1 mRNA expression: normal and iron-depleted conditions
Procedure: as §1, §2, §3
Measurement of Gene Expression. Total RNA was extracted from macrophages using the Qiagen miRNeasy Mini Kit for purification of total RNA from animal and human cells and tissues according to the manufacturer's instructions. About 2 μg of total RNA was transcribed into cDNA, after RT2 RNA QC PCR Array was run to confirm the quality of the RNA samples followed by gene expression analysis using RT2 Profiler PCR array.
The primers used for amplification of cDNA were: […]
All reactions were performed in a total reaction volume of 20 μl with iQ™ SYBR® Green Supermix (Bio-Rad) and carried out in the iQ™5 instrument (Bio-Rad). Baseline thresholds were calculated by Bio-Rad iQ5 program, and the threshold cycles (Ct) were used, wherein Ct values for the Fth1 gene were normalized to expression levels of Hprt1 (housekeeping) gene. Results are shown in Table 8-2 as n-fold difference relative to the control samples.

FTH1 [2] = test: FTH1 gene expression in human skeletal muscle cells (HSkMC) by qRT-PCR; conditions: for FTH1 Fold Change at 0.625 μM / FTH1 Fold Change at 1.25 μM / FTH1 Fold Change at 2.5 μM / FTH1 Fold Change at 5 μM / FTH1 Fold Change at 10 μM: average of triplicate (SD ≤ 0.3); for FTH1 Fold Change, Average / FTH1 Fold Change (individual runs): SPH 100 μM or synthetic oligopeptide 10 μM, about 12 hours; for FTH1 Fold Change (individual runs): triplicate runs
Procedure: A cell line derived from human skeletal muscle was selected to assess the effect of SPH and oligopeptides on gene expression. HSkMC (PCS-950-010) obtained from ATCC (Manassas, VA) were propagated in Mesenchymal Stem Cell Basal Medium (ATCC) reduced serum medium supplemented with Primary Skeletal Cell Muscle Growth Kit (ATCC) that contains L-Glutamine (10 mM), Dexamethasone ([…]), rh epidermal growth factor (5 ng/ml), rh FGF-b (5 ng/ml), rh Insulin (25 μg/mL), and fetal bovine serum (4%), on 100 mm cell culture dishes. For this assay, the HSkMC cells were seeded in 24 well plates at a cell density of 1×10^4 cells/cm^2 and maintained at 37° C. in a humidified 5% CO2 atmosphere. […]
Total RNA was extracted using the UPzol reagent for the cell pellets, followed by a DNAse treatment (DNAse TURBO), using the manufacturer's protocols. Complementary DNA (cDNA) was synthesized with the High Capacity cDNA Reverse Transcription Kit (Applied Biosystems) using random hexamers. Gene expression levels were measured by qRT-PCR.
1 μl of cDNA corresponding to 50 ng of reverse transcribed RNA was amplified by Qpcr (QuantStudio™ 6 Flex Real-Time PCR System), using the TaqMan™ Universal PCR Master Mix (Catalog No. 4304437) and a TaqMan™ assay (Roche Molecular Systems, Inc., Pleasanton, CA).
FTH1 gene expression was estimated relative to expression of the housekeeping gene, beta-actin (ACTB), following the standard formula: […]
2-ΔCt. TaqMan™ probe IDs used were: (i) FTH1, Hs01694011_s1; and (ii) ACTB, Hs01060665_g1. All experiments were run in triplicate.

Q: For `CSCC[C@H](NC(=O)[C@@H]1CCCN1C(=O)[C@H](CCCCN)NC(=O)[C@H](CC(=O)O)NC(=O)[C@H](CO)NC(=O)[C@H](CCC(=O)O)NC(=O)[C@H](CCC(=O)O)NC(=O)[C@@H](N)CCCNC(=N)N)C(=O)N[C@@H](Cc1ccc(O)cc1)C(=O)O` [FT-006, REESDKPMY] (H-REESDKPMY-OH), which “H-Ferritin Protein Levels, Fe-Normal” value (H-Ferritin) is on record?
A: Its value is 174 ng/mg total protein.

Q: What about the “H-Ferritin Protein Levels, DFO (−Fe)” value (H-Ferritin) of the same compound?
A: The value was 105 ng/mg total protein.

Q: What about the “H-Ferritin Protein Levels, Fe-NTA (+Fe)” value (H-Ferritin) of the same compound?
A: The value was 257 ng/mg total protein.

Q: What about the “intracellular H-Ferritin protein levels” value (H-Ferritin) of the same compound?
A: Its value is “substantial increases”.

Q: What about the “FTH1 Levels, Fe-Normal” value (FTH1 [1]) of the same compound?
A: The value was 2.7 n-fold.

Q: What about the “FTH1 Levels, DFO (−Fe)” value (FTH1 [1]) of the same compound?
A: Its value is 3.3 n-fold.

Q: And the “FTH1 Levels, Fe-NTA (+Fe)” value (FTH1 [1])?
A: Its value is 2.8 n-fold.

Q: And the “FTH1 mRNA expression” value (FTH1 [1])?
A: The value was “substantial increases”.

Q: What about the “FTH1 Fold Change at 0.625 μM” value (FTH1 [2]) of the same compound?
A: Its value is 1.3 fold.

Q: What about the “FTH1 Fold Change at 1.25 μM” value (FTH1 [2]) of the same compound?
A: The value was 2.2 fold.

Q: And the “FTH1 Fold Change at 2.5 μM” value (FTH1 [2])?
A: The value was 3.5 fold.

Q: What about the “FTH1 Fold Change at 5 μM” value (FTH1 [2]) of the same compound?
A: Its value is 4.2 fold.

Q: What about the “FTH1 Fold Change at 10 μM” value (FTH1 [2]) of the same compound?
A: Its value is 4.9 fold.

Q: And the “FTH1 Fold Change, Average” value (FTH1 [2])?
A: Its value is 4.7 fold.

Q: And the “FTH1 Fold Change (individual runs)” value (FTH1 [2])?
A: The value was 4.5 fold and 4.7 fold and 4.9 fold.

Q: Which results are given for `CC(C)C[C@H](NC(=O)[C@H](CCC(=O)O)NC(=O)CNC(=O)[C@H](CO)NC(=O)[C@H](CCC(=O)O)NC(=O)[C@H](CCC(=O)O)NC(=O)[C@@H](N)CCCNC(=N)N)C(=O)O` [FT-008, REESGEL] (H-REESGEL-OH)?
A: H-Ferritin Protein Levels, Fe-Normal (H-Ferritin): 158 ng/mg total protein; H-Ferritin Protein Levels, DFO (−Fe) (H-Ferritin): 122 ng/mg total protein; H-Ferritin Protein Levels, Fe-NTA (+Fe) (H-Ferritin): 200 ng/mg total protein; intracellular H-Ferritin protein levels (H-Ferritin): substantial increases; FTH1 Levels, Fe-Normal (FTH1 [1]): 2.5 n-fold; FTH1 Levels, DFO (−Fe) (FTH1 [1]): 3.4 n-fold; FTH1 Levels, Fe-NTA (+Fe) (FTH1 [1]): 2.7 n-fold; FTH1 mRNA expression (FTH1 [1]): substantial increases; FTH1 Fold Change at 0.625 μM (FTH1 [2]): 1.1 fold; FTH1 Fold Change at 1.25 μM (FTH1 [2]): 1.0 fold; FTH1 Fold Change at 2.5 μM (FTH1 [2]): 2.1 fold; FTH1 Fold Change at 5 μM (FTH1 [2]): 2.7 fold; FTH1 Fold Change at 10 μM (FTH1 [2]): 3.8 fold; FTH1 Fold Change, Average (FTH1 [2]): 3.6 fold; FTH1 Fold Change (individual runs) (FTH1 [2]): 3.9 fold and 3.3 fold and 3.7 fold

Q: How did the “H-Ferritin Protein Levels, Fe-Normal” value (H-Ferritin) turn out when `N=C(N)NCCC[C@H](NC(=O)[C@@H]1CCCN1)C(=O)N[C@@H](CCC(=O)O)C(=O)N[C@@H](CCC(=O)O)C(=O)N[C@@H](CO)C(=O)N[C@@H](CC(=O)O)C(=O)N[C@@H](CCCCN)C(=O)N1CCC[C@H]1C(=O)O` [FT-007, PREESDKP] (H-PREESDKP-OH) was run?
A: Its value is 142 ng/mg total protein.

Q: And the “H-Ferritin Protein Levels, DFO (−Fe)” value (H-Ferritin)?
A: Its value is 111 ng/mg total protein.

Q: And the “H-Ferritin Protein Levels, Fe-NTA (+Fe)” value (H-Ferritin)?
A: Its value is 197 ng/mg total protein.

Q: What about the “intracellular H-Ferritin protein levels” value (H-Ferritin) of the same compound?
A: Its value is “substantial increases”.

Q: What about the “FTH1 Levels, Fe-Normal” value (FTH1 [1]) of the same compound?
A: Its value is 1.9 n-fold.

Q: And the “FTH1 Levels, DFO (−Fe)” value (FTH1 [1])?
A: The value was 3.1 n-fold.

Q: And the “FTH1 Levels, Fe-NTA (+Fe)” value (FTH1 [1])?
A: The value was 2.9 n-fold.

Q: And the “FTH1 mRNA expression” value (FTH1 [1])?
A: The value was “substantial increases”.

Q: And the “FTH1 Fold Change at 0.625 μM” value (FTH1 [2])?
A: Its value is 1.1 fold.

Q: And the “FTH1 Fold Change at 1.25 μM” value (FTH1 [2])?
A: Its value is 1.0 fold.

Q: What about the “FTH1 Fold Change at 2.5 μM” value (FTH1 [2]) of the same compound?
A: Its value is 1.1 fold.

Q: And the “FTH1 Fold Change at 5 μM” value (FTH1 [2])?
A: The value was 1.9 fold.

Q: What about the “FTH1 Fold Change at 10 μM” value (FTH1 [2]) of the same compound?
A: The value was 2.8 fold.

Q: And the “FTH1 Fold Change, Average” value (FTH1 [2])?
A: The value was 2.6 fold.

Q: What about the “FTH1 Fold Change (individual runs)” value (FTH1 [2]) of the same compound?
A: Its value is 2.5 fold and 2.6 fold (2×).
